Data as given in patent US11807634B2, “Cyclopropyl dihydroquinoline sulfonamide compounds” (AMGEN INC., priority 2020, dated 2023).

tested on: CYP3A4; assay: Human CYP 3A4 induction assay (mRNA, cryopreserved human hepatocytes); assay type: in vitro ADME; details: human hepatocytes, 10 uM test compound, 72 hours, mRNA, percent of control (rifampin positive control)
Protocol: Human CYP 3A4 Induction Assay
Cryopreserved human hepatocytes were seeded in 96-well collagen coated plates at 70,000 cells per well in hepatocyte plating media (HPM, final concentrations: 1× Dulbecco's Modified Eagle's Medium, 0.1 μM dexamethasone, 10% fetal bovine serum, 1× ITS, 1×PSG) followed by incubation at 37° C. under 5% CO2 and 90% relative humidity for 2 days to allow hepatocytes to form a confluent layer. On Day 3, hepatocytes were treated with either test compound or rifampin (20 μM, positive control for CYP3A induction) prepared in hepatocyte incubation media ((HIM, final concentrations: 1× William's Medium E, 0.1 μM dexamethasone, 1×ITS, 1×PSG). Treatment was performed for 72 hours with either 2 concentrations (2 μM or 10 μM) or a range of concentrations (0.001 μM to 100 μM) of the test compound to obtain full dose-response curve. Fresh media containing the relevant concentrations of the test compound was replaced every day until the samples were processed. After 72 hours of incubation, samples were processed for mRNA analysis using bDNA technology using manufacturer's instructions (Affymetrix, Fremont, Calif.). Cell viability was tested at the end of the experiment using MTT assay kit (Roche Diagnostics, Basel, Switzerland). Data was analyzed and presented as percent of control (POC) and Emax and EC50 obtained when appropriate according to guidance from Center for Drug Evaluation and Research (CDER), 2006, Guidance for Industry, Drug Interaction Studies—Study Design, Data Analysis, and Implications for Dosing and Labeling.
Cryopreserved human hepatocytes were seeded in 96-well collagen coated plates at 70,000 cells per well in hepatocyte plating media (HPM, final concentrations: 1× Dulbecco's Modified Eagle's Medium, 0.1 μM dexamethasone, 10% fetal bovine serum, 1×ITS, 1×PSG) followed by incubation at 37° C. under 5% CO2 and 90% relative humidity for 2 days to allow hepatocytes to form a confluent layer. On Day 3, hepatocytes were treated with either test compound or rifampin (20 μM, positive control for CYP3A induction) prepared in hepatocyte incubation media ((HIM, final concentrations: 1× William's Medium E, 0.1 μM dexamethasone, 1×ITS, 1×PSG). Treatment was performed for 72 hours with either 2 concentrations (2 μM or 10 μM) or a range of concentrations (0.001 μM to 100 μM) of the test compound to obtain full dose-response curve. Fresh media containing the relevant concentrations of the test compound was replaced every day until the samples were processed. After 72 hours of incubation, samples were processed for mRNA analysis using bDNA technology using manufacturer's instructions (Affymetrix, Fremont, Calif.). Cell viability was tested at the end of the experiment using MTT assay kit (Roche Diagnostics, Basel, Switzerland). Data was analyzed and presented as percent of control (POC) and Emax and EC50 obtained when appropriate, as described in Halladay, J. et al, 2012, An “all-inclusive” 96-well cytochrome P450 induction method: Measuring enzyme activity, mRNA levels, protein levels, and cytotoxicity from one well using cryopreserved human hepatocytes, Pharmacological and Toxicological Methods, 66:270-275.
The cytochrome P450 (CYP) is a well-known superfamily of enzymes that are responsible for the oxidative and reductive metabolic transformation of medications used in clinical practice. In addition, the CYP enzymes are commonly associated with causing many clinically relevant drug-drug interactions. Of the CYP enzymes, CYP3A4 is not only the most prevalent CYP enzyme in the liver and intestine, but is responsible for metabolism and elimination of approximately 50% of marketed drugs. In addition, CYP3A4 activity can be induced (or increased) or inhibited (decreased) in response to administration of certain drugs, thereby affecting concentrations of their own or certain concomitant drugs present in the body. […]

Compared with COc1cc([C@@H]2C[C@H]2C(F)(F)F)ccc1-n1c(=O)ccc2cc(S(=O)(=O)Nc3ccon3)ccc21 (atropisomer, axis not shown; (P)) [Example 38, (P)-N-(isoxazol-3-yl)-1-(2-methoxy-4-((1R,2R)-2-(trifluoromethyl)cyclopropyl)phenyl)-2-oxo-1,2-dihydroquinoline-6-sulfonamide], COc1cc([C@@H]2C[C@H]2C(F)(F)F)ccc1-n1c(=O)ccc2cc(S(=O)(=O)Nc3ccon3)c(F)cc21 (atropisomer, axis not shown; (P)) [Example 47, (P)-7-fluoro-N-(isoxazol-3-yl)-1-(2-methoxy-4-((1R,2R)-2-(trifluoromethyl)cyclopropyl)phenyl)-2-oxo-1,2-dihydroquinoline-6-sulfonamide] is lower in “CYP3A4 mRNA Induct Hu 10 uM POC” value: 29.06% for the first, 14.245% for the second.

Compared with COc1cc(C2CC2)c(F)cc1-n1c(=O)ccc2cc(S(=O)(=O)Nc3ccon3)ccc21 [A, 1-(4-cyclopropyl-5-fluoro-2-methoxyphenyl)-N-(isoxazol-3-yl)-2-oxo-1,2-dihydroquinoline-6-sulfonamide, reference compound], COc1cc([C@H]2C[C@@H]2C)c(F)cc1-n1c(=O)ccc2cc(S(=O)(=O)Nc3ccon3)ccc21 (atropisomer, axis not shown; (P)) [Example 7, (P)-1-(5-fluoro-2-methoxy-4-((1S,2S)-2-methylcyclopropyl)phenyl)-N-(isoxazol-3-yl)-2-oxo-1,2-dihydroquinoline-6-sulfonamide] is lower in “CYP3A4 mRNA Induct Hu 10 uM POC” value: 84.31% for the first, 41.2% for the second.

Compared with COc1cc([C@H]2C[C@@H]2C(F)(F)F)c(F)cc1-n1c(=O)ccc2cc(S(=O)(=O)Nc3ccon3)c(F)cc21 (single isomer, unassigned) [Example 46], COc1cc([C@@H]2C[C@H]2C(F)(F)F)c(Cl)cc1-n1c(=O)ccc2cc(S(=O)(=O)Nc3ccon3)ccc21 (atropisomer, axis not shown; (P)) [Example 18, (P)-1-(5-chloro-2-methoxy-4-((1R,2R)-2-(trifluoromethyl)cyclopropyl)phenyl)-N-(isoxazol-3-yl)-2-oxo-1,2-dihydroquinoline-6-sulfonamide] is lower in “CYP3A4 mRNA Induct Hu 10 uM POC” value: 53.03% for the first, 9.92% for the second.

Compared with COc1cc([C@@H]2C[C@H]2C(F)(F)F)c(F)cc1-n1c(=O)ccc2cc(S(=O)(=O)Nc3ncco3)ccc21 (atropisomer, axis not shown; (P)) [Example 35, (P)-1-(5-fluoro-2-methoxy-4-((1R,2R)-2-(trifluoromethyl)cyclopropyl)phenyl)-N-(oxazol-2-yl)-2-oxo-1,2-dihydroquinoline-6-sulfonamide], COc1cc([C@@H]2C[C@H]2C(F)(F)F)c(F)cc1-n1c(=O)ccc2cc(S(=O)(=O)Nc3ncccn3)ccc21 (atropisomer, axis not shown; (P)) [Example 20, (P)-1-(5-fluoro-2-methoxy-4-((1R,2R)-2-(trifluoromethyl)cyclopropyl)phenyl)-2-oxo-N-(pyrimidin-2-yl)-1,2-dihydroquinoline-6-sulfonamide] is higher in “CYP3A4 mRNA Induct Hu 10 uM POC” value: 53.28% for the first, 67.47% for the second.

First: COc1cc([C@H]2C[C@@H]2C(F)(F)F)c(Cl)cc1-n1c(=O)ccc2cc(S(=O)(=O)Nc3ncccn3)ccc21 (atropisomer, axis not shown; (P)) [Example 12, (P)-1-(5-chloro-2-methoxy-4-((1S,2S)-2-(trifluoromethyl)cyclopropyl)phenyl)-2-oxo-N-(pyrimidin-2-yl)-1,2-dihydroquinoline-6-sulfonamide]
Second: COc1cc([C@H]2C[C@@H]2C(F)(F)F)c(C)cc1-n1c(=O)ccc2cc(S(=O)(=O)Nc3ncccn3)ccc21 (atropisomer, axis not shown; (P)) [Example 29, (P)-1-(2-methoxy-5-methyl-4-((1S,2S)-2-(trifluoromethyl)cyclopropyl)phenyl)-2-oxo-N-(pyrimidin-2-yl)-1,2-dihydroquinoline-6-sulfonamide]
The “CYP3A4 mRNA Induct Hu 10 uM POC” value of the first is lower: 29.85% for the first, 74.53% for the second.

First: COc1cc(C2(C(F)(F)F)CC2)c(Cl)cc1-n1c(=O)ccc2cc(S(=O)(=O)Nc3ncccn3)ccc21 (atropisomer, axis not shown; (P)) [Example 25, (P)-1-(5-chloro-2-methoxy-4-(1-(trifluoromethyl)cyclopropyl)phenyl)-2-oxo-N-(pyrimidin-2-yl)-1,2-dihydroquinoline-6-sulfonamide]
Second: COc1cc([C@H]2C[C@@H]2C(F)(F)F)c(Cl)cc1-n1c(=O)ccc2cc(S(=O)(=O)Nc3cccnn3)ccc21 (single isomer, unassigned) [Example 15]
The “CYP3A4 mRNA Induct Hu 10 uM POC” value of the first is higher: 88.68% for the first, 69.11% for the second.

Going from COc1cc([C@H]2C[C@@H]2C(F)(F)F)c(C#N)cc1-n1c(=O)ccc2cc(S(=O)(=O)Nc3ccon3)ccc21 (atropisomer, axis not shown; (P)) [Example 37, (P)-1-(5-cyano-2-methoxy-4-((1S,2S)-2-(trifluoromethyl)cyclopropyl)phenyl)-N-(isoxazol-3-yl)-2-oxo-1,2-dihydroquinoline-6-sulfonamide] to COc1cc([C@H]2C[C@@H]2C(F)(F)F)c(Cl)cc1-n1c(=O)ccc2cc(S(=O)(=O)Nc3ccon3)ccc21 (atropisomer, axis not shown; (P)) [Example 19, (P)-1-(5-chloro-2-methoxy-4-((1S,2S)-2-(trifluoromethyl)cyclopropyl)phenyl)-N-(isoxazol-3-yl)-2-oxo-1,2-dihydroquinoline-6-sulfonamide], the “CYP3A4 mRNA Induct Hu 10 uM POC” value rises from 16.39% to 85.5%.

First: COc1cc([C@H]2C[C@@H]2c2ccccc2)c(F)cc1-n1c(=O)ccc2cc(S(=O)(=O)Nc3ccon3)ccc21 (atropisomer, axis not shown; (P)) [Example 9, (P)-1-(5-fluoro-2-methoxy-4-((1S,2S)-2-phenylcyclopropyl)phenyl)-N-(isoxazol-3-yl)-2-oxo-1,2-dihydroquinoline-6-sulfonamide]
Second: COc1cc([C@H]2C[C@@H]2C(F)(F)F)c(F)cc1-n1c(=O)ccc2cc(S(=O)(=O)Nc3cccnn3)ccc21 (atropisomer, axis not shown; (P)) [Example 17, (P)-1-(5-fluoro-2-methoxy-4-((1S,2S)-2-(trifluoromethyl)cyclopropyl)phenyl)-2-oxo-N-(pyridazin-3-yl)-1,2-dihydroquinoline-6-sulfonamide]
The “CYP3A4 mRNA Induct Hu 10 uM POC” value of the first is higher: 37.165% for the first, 37.04% for the second.
